Data from the supplement of paper PMC10307832.

Key:
Experiment in all cases: relative viability (nuclei count vs DMSO), 5 days (fraction); higher = more cells survive
Neratinib + OSI-027 = compound: CCOc1cc2ncc(C#N)c(Nc3ccc(OCc4ccccn4)c(Cl)c3)c2cc1NC(=O)/C=C/CN(C)C [Neratinib] + COc1cccc2cc(-c3nc([C@H]4CC[C@H](C(=O)O)CC4)n4ncnc(N)c34)[nH]c12 [OSI-027] (partner 0.5 µM)
Method in brief: (§1)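 Relative viability is defined as nuclei in treated wells over nuclei in vehicle wells. Duplicate plates were run and medians reported. Lung cancer cell lines in 1536-well plates were dosed by pin tool one day after seeding, with one drug or with a fixed anchor-drug dose plus five library-drug doses (not always all listed) in √10 steps, and nuclei were counted after 5 days.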

Neratinib + Lapatinib = compound: CCOc1cc2ncc(C#N)c(Nc3ccc(OCc4ccccn4)c(Cl)c3)c2cc1NC(=O)/C=C/CN(C)C [Neratinib] + CS(=O)(=O)CCNCc1ccc(-c2ccc3ncnc(Nc4ccc(OCc5cccc(F)c5)c(Cl)c4)c3c2)o1 [Lapatinib] (partner 2 µM)
Method in brief: as §1

Neratinib + Linsitinib = compound: CCOc1cc2ncc(C#N)c(Nc3ccc(OCc4ccccn4)c(Cl)c3)c2cc1NC(=O)/C=C/CN(C)C [Neratinib] + C[C@]1(O)C[C@@H](c2nc(-c3ccc4ccc(-c5ccccc5)nc4c3)c3c(N)nccn32)C1 [Linsitinib] (partner 1 µM)
Method in brief: as §1

Neratinib + Alpelisib = compound: CCOc1cc2ncc(C#N)c(Nc3ccc(OCc4ccccn4)c(Cl)c3)c2cc1NC(=O)/C=C/CN(C)C [Neratinib] + Cc1nc(NC(=O)N2CCC[C@H]2C(N)=O)sc1-c1ccnc(C(C)(C)C(F)(F)F)c1 [Alpelisib] (partner 2 µM)
Method in brief: as §1

In the case of COR-L 105, the relative viability (Neratinib + OSI-027; first compound 0.01 µM) is reported as 0.863, the relative viability (Neratinib + OSI-027; first compound 0.03162 µM) is reported as 0.54 and the relative viability (Neratinib + OSI-027; first compound 0.1 µM) is reported as 0.36. For the same cell line, the relative viability (Neratinib + OSI-027; first compound 0.3162 µM) was 0.226, the relative viability (Neratinib + OSI-027; first compound 1 µM) was 0.283 and the relative viability (Neratinib + Lapatinib; first compound 0.01 µM) was 0.36. It also gave a relative viability (Neratinib + Lapatinib; first compound 0.03162 µM) of 0.37, a relative viability (Neratinib + Lapatinib; first compound 0.1 µM) of 0.331 and a relative viability (Neratinib + Lapatinib; first compound 0.3162 µM) of 0.377. For the same cell line, the relative viability (Neratinib + Lapatinib; first compound 1 µM) was 0.32, the relative viability (Neratinib + Linsitinib; first compound 0.01 µM) was 0.989 and the relative viability (Neratinib + Linsitinib; first compound 0.03162 µM) was 1.07. It also gave a relative viability (Neratinib + Linsitinib; first compound 0.1 µM) of 0.754, a relative viability (Neratinib + Linsitinib; first compound 0.3162 µM) of 0.298 and a relative viability (Neratinib + Linsitinib; first compound 1 µM) of 0.241. It also gave a relative viability (Neratinib + Alpelisib; first compound 0.01 µM) of 1.04, a relative viability (Neratinib + Alpelisib; first compound 0.03162 µM) of 0.936 and a relative viability (Neratinib + Alpelisib; first compound 0.1 µM) of 0.704. It also gave a relative viability (Neratinib + Alpelisib; first compound 0.3162 µM) of 0.263 and a relative viability (Neratinib + Alpelisib; first compound 1 µM) of 0.255.

In the case of Calu-6, the relative viability (Neratinib + Lapatinib; first compound 0.03162 µM) is reported as 1.27, the relative viability (Neratinib + Lapatinib; first compound 0.1 µM) is reported as 0.967 and the relative viability (Neratinib + Lapatinib; first compound 0.3162 µM) is reported as 0.95. For the same cell line, the relative viability (Neratinib + Lapatinib; first compound 1 µM) was 0.64, the relative viability (Neratinib + Linsitinib; first compound 0.01 µM) was 1.03 and the relative viability (Neratinib + Linsitinib; first compound 0.03162 µM) was 1.08. For the same cell line, the relative viability (Neratinib + Linsitinib; first compound 0.1 µM) was 1.02, the relative viability (Neratinib + Linsitinib; first compound 0.3162 µM) was 0.899 and the relative viability (Neratinib + Linsitinib; first compound 1 µM) was 0.824. It also gave a relative viability (Neratinib + Alpelisib; first compound 0.01 µM) of 0.992, a relative viability (Neratinib + Alpelisib; first compound 0.03162 µM) of 1.05 and a relative viability (Neratinib + Alpelisib; first compound 0.1 µM) of 1.01. It also gave a relative viability (Neratinib + Alpelisib; first compound 0.3162 µM) of 0.835 and a relative viability (Neratinib + Alpelisib; first compound 1 µM) of 0.451.

ChaGo-K-1 gave a relative viability (Neratinib + OSI-027; first compound 0.01 µM) of 0.62, a relative viability (Neratinib + OSI-027; first compound 0.03162 µM) of 0.545 and a relative viability (Neratinib + OSI-027; first compound 0.1 µM) of 0.574. It also gave a relative viability (Neratinib + OSI-027; first compound 0.3162 µM) of 0.459 and a relative viability (Neratinib + OSI-027; first compound 1 µM) of 0.613.

EBC-1 showed a relative viability (Neratinib + Lapatinib; first compound 0.01 µM) of 0.205, a relative viability (Neratinib + Lapatinib; first compound 0.03162 µM) of 0.192 and a relative viability (Neratinib + Lapatinib; first compound 0.1 µM) of 0.199. It also gave a relative viability (Neratinib + Lapatinib; first compound 0.3162 µM) of 0.233, a relative viability (Neratinib + Lapatinib; first compound 1 µM) of 0.211 and a relative viability (Neratinib + Linsitinib; first compound 0.01 µM) of 0.932. It also gave a relative viability (Neratinib + Linsitinib; first compound 0.03162 µM) of 1.08, a relative viability (Neratinib + Linsitinib; first compound 0.1 µM) of 0.842 and a relative viability (Neratinib + Linsitinib; first compound 0.3162 µM) of 0.914. It also gave a relative viability (Neratinib + Linsitinib; first compound 1 µM) of 1.04, a relative viability (Neratinib + Alpelisib; first compound 0.01 µM) of 0.912 and a relative viability (Neratinib + Alpelisib; first compound 0.03162 µM) of 0.958. It also gave a relative viability (Neratinib + Alpelisib; first compound 0.1 µM) of 0.795, a relative viability (Neratinib + Alpelisib; first compound 0.3162 µM) of 0.754 and a relative viability (Neratinib + Alpelisib; first compound 1 µM) of 0.517.

EKVX was tested, and the relative viability (Neratinib + OSI-027; first compound 0.01 µM) was 0.712, the relative viability (Neratinib + OSI-027; first compound 0.03162 µM) was 0.693 and the relative viability (Neratinib + OSI-027; first compound 0.1 µM) was 0.656. It also gave a relative viability (Neratinib + OSI-027; first compound 0.3162 µM) of 0.365, a relative viability (Neratinib + OSI-027; first compound 1 µM) of 0.195 and a relative viability (Neratinib + Lapatinib; first compound 0.01 µM) of 0.186. For the same cell line, the relative viability (Neratinib + Lapatinib; first compound 0.03162 µM) was 0.212, the relative viability (Neratinib + Lapatinib; first compound 0.1 µM) was 0.179 and the relative viability (Neratinib + Lapatinib; first compound 0.3162 µM) was 0.195. For the same cell line, the relative viability (Neratinib + Lapatinib; first compound 1 µM) was 0.189, the relative viability (Neratinib + Linsitinib; first compound 0.01 µM) was 1.12 and the relative viability (Neratinib + Linsitinib; first compound 0.03162 µM) was 0.85. The relative viability (Neratinib + Linsitinib; first compound 0.1 µM) was 0.842, the relative viability (Neratinib + Linsitinib; first compound 0.3162 µM) was 0.276 and the relative viability (Neratinib + Linsitinib; first compound 1 µM) was 0.141. It also gave a relative viability (Neratinib + Alpelisib; first compound 0.01 µM) of 0.878, a relative viability (Neratinib + Alpelisib; first compound 0.03162 µM) of 0.973 and a relative viability (Neratinib + Alpelisib; first compound 0.1 µM) of 0.645. For the same cell line, the relative viability (Neratinib + Alpelisib; first compound 0.3162 µM) was 0.284 and the relative viability (Neratinib + Alpelisib; first compound 1 µM) was 0.161.

EMC-BAC-2 showed a relative viability (Neratinib + OSI-027; first compound 0.01 µM) of 0.36, a relative viability (Neratinib + OSI-027; first compound 0.03162 µM) of 0.456 and a relative viability (Neratinib + OSI-027; first compound 0.1 µM) of 0.344. It also gave a relative viability (Neratinib + OSI-027; first compound 0.3162 µM) of 0.361, a relative viability (Neratinib + OSI-027; first compound 1 µM) of 0.291 and a relative viability (Neratinib + Lapatinib; first compound 0.01 µM) of 1.03. It also gave a relative viability (Neratinib + Lapatinib; first compound 0.03162 µM) of 0.965, a relative viability (Neratinib + Lapatinib; first compound 0.1 µM) of 0.826 and a relative viability (Neratinib + Lapatinib; first compound 0.3162 µM) of 0.856. It also gave a relative viability (Neratinib + Lapatinib; first compound 1 µM) of 0.864, a relative viability (Neratinib + Linsitinib; first compound 0.01 µM) of 0.834 and a relative viability (Neratinib + Linsitinib; first compound 0.03162 µM) of 0.775. The relative viability (Neratinib + Linsitinib; first compound 0.1 µM) was 0.683, the relative viability (Neratinib + Linsitinib; first compound 0.3162 µM) was 0.578 and the relative viability (Neratinib + Linsitinib; first compound 1 µM) was 0.435. It also gave a relative viability (Neratinib + Alpelisib; first compound 0.01 µM) of 0.774, a relative viability (Neratinib + Alpelisib; first compound 0.1 µM) of 0.667 and a relative viability (Neratinib + Alpelisib; first compound 0.3162 µM) of 0.576. It also gave a relative viability (Neratinib + Alpelisib; first compound 1 µM) of 0.301.

EPLC-272H was tested, and the relative viability (Neratinib + OSI-027; first compound 0.03162 µM) was 0.294, the relative viability (Neratinib + OSI-027; first compound 0.3162 µM) was 0.24 and the relative viability (Neratinib + OSI-027; first compound 1 µM) was 0.194. It also gave a relative viability (Neratinib + Lapatinib; first compound 0.01 µM) of 0.889, a relative viability (Neratinib + Lapatinib; first compound 0.03162 µM) of 0.849 and a relative viability (Neratinib + Lapatinib; first compound 0.1 µM) of 0.829. It also gave a relative viability (Neratinib + Lapatinib; first compound 0.3162 µM) of 0.899, a relative viability (Neratinib + Lapatinib; first compound 1 µM) of 0.536 and a relative viability (Neratinib + Linsitinib; first compound 0.01 µM) of 1.19. For the same cell line, the relative viability (Neratinib + Linsitinib; first compound 0.03162 µM) was 1.08, the relative viability (Neratinib + Linsitinib; first compound 0.1 µM) was 0.999 and the relative viability (Neratinib + Linsitinib; first compound 0.3162 µM) was 0.711. For the same cell line, the relative viability (Neratinib + Linsitinib; first compound 1 µM) was 0.872, the relative viability (Neratinib + Alpelisib; first compound 0.01 µM) was 0.962 and the relative viability (Neratinib + Alpelisib; first compound 0.03162 µM) was 0.87. It also gave a relative viability (Neratinib + Alpelisib; first compound 0.1 µM) of 0.699, a relative viability (Neratinib + Alpelisib; first compound 0.3162 µM) of 0.71 and a relative viability (Neratinib + Alpelisib; first compound 1 µM) of 0.352.

Cell Line H3255 has a relative viability (Neratinib + OSI-027; first compound 0.01 µM) of 0.559, a relative viability (Neratinib + OSI-027; first compound 0.03162 µM) of 0.571 and a relative viability (Neratinib + OSI-027; first compound 0.1 µM) of 0.436. It also gave a relative viability (Neratinib + OSI-027; first compound 0.3162 µM) of 0.212, a relative viability (Neratinib + OSI-027; first compound 1 µM) of 0.215 and a relative viability (Neratinib + Lapatinib; first compound 0.01 µM) of 0.257. For the same cell line, the relative viability (Neratinib + Lapatinib; first compound 0.03162 µM) was 0.333, the relative viability (Neratinib + Lapatinib; first compound 0.1 µM) was 0.273 and the relative viability (Neratinib + Lapatinib; first compound 0.3162 µM) was 0.229. For the same cell line, the relative viability (Neratinib + Lapatinib; first compound 1 µM) was 0.176, the relative viability (Neratinib + Linsitinib; first compound 0.01 µM) was 0.963 and the relative viability (Neratinib + Linsitinib; first compound 0.03162 µM) was 0.961. For the same cell line, the relative viability (Neratinib + Linsitinib; first compound 0.1 µM) was 0.725, the relative viability (Neratinib + Linsitinib; first compound 0.3162 µM) was 0.233 and the relative viability (Neratinib + Linsitinib; first compound 1 µM) was 0.0969. The relative viability (Neratinib + Alpelisib; first compound 0.01 µM) was 0.706, the relative viability (Neratinib + Alpelisib; first compound 0.1 µM) was 0.468 and the relative viability (Neratinib + Alpelisib; first compound 0.3162 µM) was 0.171. The relative viability (Neratinib + Alpelisib; first compound 1 µM) was 0.107.
